Measurements as given in article PMC3750913 (BMC Microbiology, 2013).

Assays:
RSV [1] = assay: Viral attachment assay, method 1 (host cell infection); format: cell-based, respiratory syncytial virus; settings: RSV, HEp-2 cells, 4°C; CHLA 1 μM, PUG 2 μM, Heparin 1 μg/ml
MV [2] = assay: Analysis of drug effects post viral entry; format: cell-based, measles virus; settings: MV, CHO-SLAM cells; CHLA 90 μM, PUG 50 μM, Heparin 10 μg/ml
RSV [3] = assay: Viral attachment assay, method 2 (virus-specific cellular ELISA); format: cell-based, respiratory syncytial virus; settings: RSV MOI 5, ELISA, 4°C; highest inhibitory concentration of the compounds
DENV-2 [4] = assay: Viral inactivation assay; format: cell-based, dengue virus type 2; settings: DENV-2, Vero cells; CHLA 25 μM, PUG 25 μM, Heparin 200 μg/ml
RSV [5] = assay: Viral cell-to-cell spread assay; format: cell-based, respiratory syncytial virus; settings: RSV
HCV [6] = assay: Viral attachment assay, method 1 (host cell infection); format: cell-based, hepatitis C virus; settings: HCV, Huh-7.5 cells, 4°C; CHLA 50 μM, PUG 50 μM, Heparin 1000 μg/ml
MV [7] = assay: as above; format: cell-based, measles virus; settings: MV, CHO-SLAM cells, 4°C; CHLA 90 μM, PUG 50 μM, Heparin 10 μg/ml
HCV [8] = assay: Viral attachment assay, method 2 (virus-specific cellular ELISA); format: cell-based, hepatitis C virus; settings: HCV MOI 0.1, ELISA, 4°C; highest inhibitory concentration of the compounds
DENV-2 [9] = assay: Viral attachment assay, method 1 (host cell infection); format: cell-based, dengue virus type 2; settings: DENV-2, Vero cells, 4°C; CHLA 25 μM, PUG 25 μM, Heparin 200 μg/ml
HCMV [10] = assay: Viral cell-to-cell spread assay; format: cell-based, human cytomegalovirus; settings: HCMV
DENV-2 [11] = assay: Analysis of drug effects post viral entry; format: cell-based, dengue virus type 2; settings: DENV-2, Vero cells; CHLA 25 μM, PUG 25 μM, Heparin 200 μg/ml
HCMV [12] = assay: Viral attachment assay, method 1 (host cell infection); format: cell-based, human cytomegalovirus; settings: HCMV, HEL cells, 4°C; CHLA 60 μM, PUG 40 μM, Heparin 30 μg/ml
DENV-2 [13] = assay: Viral attachment assay, method 2 (virus-specific cellular ELISA); format: cell-based, dengue virus type 2; settings: DENV-2 MOI 5, ELISA, 4°C; highest inhibitory concentration of the compounds
RSV [14] = assay: Analysis of drug effects post viral entry; format: cell-based, respiratory syncytial virus; settings: RSV, HEp-2 cells; CHLA 1 μM, PUG 2 μM, Heparin 1 μg/ml
DENV-2 [15] = assay: Viral cell-to-cell spread assay; format: cell-based, dengue virus type 2
HCV [16] = assay: Viral cell-to-cell spread assay; format: cell-based, hepatitis C virus; settings: HCV
Protocol: (A) Schematic of the experiment (left) with the virus concentration (PFU/well) and step-wise incubation periods (i, ii, iii) indicated for each virus in the table on the right. Virus infections were established (i) in the different cell types by direct inoculation (HCMV, DENV-2, MV, and RSV) or electroporation of viral RNA (HCV; *), and the cell monolayers were washed with citrate buffer or PBS before being covered with an overlay medium that prevents secondary infection. Initial virus plaques were allowed to form in the subsequent infections (ii), and then the test compounds were added to the overlay medium for an additional time of incubation (iii) before analysis of viral plaque size by immune fluorescence microscopy. Five random virus-positive plaques at the endpoint of the experiment were evaluated for each treatment group of viruses, and the data was plotted as “fold change of plaque area” against the size of the initial viral plaques formed prior to test compound treatment. Analyses for (B) HCMV, (C) HCV, (D) DENV-2, (E) MV, and (F) RSV are indicated in each additional panel. The S29 cell line and the FIP inhibitor were included as controls for HCV and MV, respectively. Results shown are means ± SEM from three independent experiments and representative micrographs of the evaluated plaques are provided in Additional file 1 Figure S1, Additional file 2 Figure S2, Additional file 3 Figure S3, Additional file 4 Figure S4 and Additional file 5 Figure S5. See text for details.
The examination of HCV spread is based on previously described protocol with some modifications. Huh-7.5 cells were electroporated with HCV Jc1FLAG2(p7-nsGluc2A) RNA (10 μg) as described above to establish random productive infections in the cell population, and then mixed with naïve cells at a ratio of 1:1 before seeding in 12-well plates. […] Medium was changed 24 h post-electroporation with an overlay medium containing the test drugs or control and 0.5% methylcellulose, and the plates were further incubated for 5 days before analysis of HCV-positive foci through immunostaining.
For immunofluorescence analysis of viral plaque size due to spread, the overlay media were removed and the wells were fixed with ice-cold methanol before blocking with 3% BSA. Samples were then treated at 37°C for 1 h with the respective mouse monoclonal primary antibodies diluted in PBS containing 3% BSA: anti-HCMV gB antibody (1:1,000), anti-NS5A 9E10 antibody for HCV (1:25,000), anti-flavivirus group antibody (1:400) for DENV-2, and anti-RSV fusion protein antibody (1:1,000). After incubation, the wells were washed with PBS three times before applying Alexa Fluor 488 goat anti-mouse IgG (H + L) antibody (Invitrogen), diluted at 1:1,000 (HCMV and RSV) or 1:400 (DENV-2 and HCV) in PBS containing 3% BSA. Following incubation at 37°C for 1 h, the samples were washed with PBS three times prior to visualization by fluorescence microscopy. The fluorescence expression of MV-EGFP could be readily detected without addition of antibodies. Photomicrographs were taken at × 100 magnification (Leica Microsystems; Wetzlar, Germany) and viral plaque sizes were then analyzed with MetaMorph software (Molecular Devices; Sunnyvale, CA, USA). In the case of HCV, cellular nuclei were stained with Hoechst dye (Sigma) prior to visualization and the number of cells in the virus-positive foci was determined. For all virus tested, a total of five random virus-positive plaques were evaluated for each treatment group per independent experiment. Comparison was made between viral plaques stained prior to drug addition and those at the endpoint of the experiment, and the data were plotted as “fold change of plaque area”.

MV [17] = assay: Viral penetration assay; format: cell-based, measles virus; settings: MV
HCMV [18] = assay: Viral attachment assay, method 2 (virus-specific cellular ELISA); format: cell-based, human cytomegalovirus; settings: HCMV MOI 5, ELISA, 4°C; highest inhibitory concentration of the compounds
DENV-2 [19] = assay: Viral penetration assay; format: cell-based, dengue virus type 2; settings: DENV-2, Vero cells; CHLA 25 μM, PUG 25 μM, Heparin 200 μg/ml
HCMV [20] = assay: Analysis of drug effects post viral entry; format: cell-based, human cytomegalovirus; settings: HCMV, HEL cells; CHLA 60 μM, PUG 40 μM, Heparin 30 μg/ml
RSV [21] = assay: Viral inactivation assay; format: cell-based, respiratory syncytial virus; settings: RSV, HEp-2 cells; CHLA 1 μM, PUG 2 μM, Heparin 1 μg/ml
HCMV [22] = assay: Viral penetration assay; format: cell-based, human cytomegalovirus; settings: HCMV
HCMV [23] = assay: Viral inactivation assay; format: cell-based, human cytomegalovirus; settings: HCMV, HEL cells; CHLA 60 μM, PUG 40 μM, Heparin 30 μg/ml
HCV [24] = assay: Analysis of drug effects post viral entry; format: cell-based, hepatitis C virus; settings: HCV, Huh-7.5 cells; CHLA 50 μM, PUG 50 μM, Heparin 1000 μg/ml
ADV-5 = test system: ADV-5; set-up: method as in PMID 16894186, PMID 10704346; settings: HS-mediated entry; ref [51], [52]; cited from earlier work
MV [25] = assay: Viral cell-to-cell spread assay; format: cell-based, measles virus; settings: MV
HCV [26] = assay: Viral penetration assay; format: cell-based, hepatitis C virus; settings: HCV
[27] = HEL cells, CHLA 60 μM, PUG 40 μM, Heparin 30 μg/ml
[28] = Huh-7.5 cells, CHLA 50 μM, PUG 50 μM, Heparin 1000 μg/ml
[29] = CHO-SLAM cells, CHLA 90 μM, PUG 50 μM, Heparin 10 μg/ml

## Heparin [reference compound]
RSV [1]
  Window of antiviral effects: Attachment Method 1, inhibitory effect relative to DMSO control: +++ (+++ > 75%)
MV [2]
  Window of antiviral effects: Post-infection, inhibitory effect relative to DMSO control: - (- < 25%)
RSV [3]
  Window of antiviral effects: Attachment Method 2, inhibitory effect relative to DMSO control: ++ (++ 50–75%)
DENV-2 [4]
  Window of antiviral effects: Free particle, inhibitory effect relative to DMSO control: ++ (++ 50–75%)
RSV [5]; HEp-2 cells, CHLA 1 μM, PUG 2 μM, Heparin 1 μg/ml
  Window of antiviral effects: Cell-to-cell spread, inhibitory effect relative to DMSO control: - (- < 25%)
RSV [5]; Figure 7
  effect on viral plaque size (cell-to-cell spread): limited effect
HCV [6]
  Window of antiviral effects: Attachment Method 1, inhibitory effect relative to DMSO control: + (+ 25–50%)
MV [7]
  Window of antiviral effects: Attachment Method 1, inhibitory effect relative to DMSO control: +++ (+++ > 75%)
HCV [8]
  Window of antiviral effects: Attachment Method 2, inhibitory effect relative to DMSO control: +++ (+++ > 75%)
DENV-2 [9]
  Window of antiviral effects: Attachment Method 1, inhibitory effect relative to DMSO control: +++ (+++ > 75%)
HCMV [10]; [27]
  Window of antiviral effects: Cell-to-cell spread, inhibitory effect relative to DMSO control: - (- < 25%)
HCMV [10]; Figure 7
  effect on viral plaque size (cell-to-cell spread): limited effect
DENV-2 [11]
  Window of antiviral effects: Post-infection, inhibitory effect relative to DMSO control: - (- < 25%)
HCMV [12]
  Window of antiviral effects: Attachment Method 1, inhibitory effect relative to DMSO control: ++ (++ 50–75%)
DENV-2 [13]
  Window of antiviral effects: Attachment Method 2, inhibitory effect relative to DMSO control: +++ (+++ > 75%)
RSV [14]
  Window of antiviral effects: Post-infection, inhibitory effect relative to DMSO control: - (- < 25%)
DENV-2 [15]; DENV-2, Vero cells, CHLA 25 μM, PUG 25 μM, Heparin 200 μg/ml
  Window of antiviral effects: Cell-to-cell spread, inhibitory effect relative to DMSO control: - (- < 25%)
DENV-2 [15]; DENV-2, Figure 7
  effect on viral plaque size (cell-to-cell spread): limited effect
HCV [16]; [28]
  Window of antiviral effects: Cell-to-cell spread, inhibitory effect relative to DMSO control: - (- < 25%)
HCV [16]; Figure 7
  effect on viral plaque size (cell-to-cell spread): limited effect
MV [17]; [29]
  Window of antiviral effects: Penetration, inhibitory effect relative to DMSO control: + (+ 25–50%)
MV [17]; shift 4°C to 37°C, Figure 4
  protection of the host cell from infection during virus penetration: < 40%
HCMV [18]
  Window of antiviral effects: Attachment Method 2, inhibitory effect relative to DMSO control: +++ (+++ > 75%)
DENV-2 [19]
  Window of antiviral effects: Penetration, inhibitory effect relative to DMSO control: ++ (++ 50–75%)
HCMV [20]
  Window of antiviral effects: Post-infection, inhibitory effect relative to DMSO control: - (- < 25%)
RSV [21]
  Window of antiviral effects: Free particle, inhibitory effect relative to DMSO control: + (+ 25–50%)
HCMV [22]; [27]
  Window of antiviral effects: Penetration, inhibitory effect relative to DMSO control: + (+ 25–50%)
HCMV [22]; shift 4°C to 37°C, Figure 4
  protection of the host cell from infection during virus penetration: < 40%
HCMV [23]
  Window of antiviral effects: Free particle, inhibitory effect relative to DMSO control: + (+ 25–50%)
HCV [24]
  Window of antiviral effects: Post-infection, inhibitory effect relative to DMSO control: + (+ 25–50%)
ADV-5
  maximum inhibition of ADV-5 by soluble heparin: ≤ 50%
MV [25]; [29]
  Window of antiviral effects: Cell-to-cell spread, inhibitory effect relative to DMSO control: - (- < 25%)
MV [25]; Figure 7
  effect on viral plaque size (cell-to-cell spread): limited effect
HCV [26]; [28]
  Window of antiviral effects: Penetration, inhibitory effect relative to DMSO control: - (- < 25%)
HCV [26]; shift 4°C to 37°C, Figure 4
  protection of the host cell from infection during virus penetration: < 40%
